Experimental data: PubChem BioAssay AID1845204 (Molecular Pharmacology Branch, DTP, NCI, 2023)
pIC50: −log10 of the molar value.

System: HSSY-II tumor spheroid viability
Assay: Anticancer human tumor HSSY-II cell line growth inhibition;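 further: spheroids exposed to compounds for seven days before reading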;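 on viability, T/C: percent of DMSO vehicle control viability so 100% = untreated level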
Details: spheroids with HUVEC and MSC; for pIC50: curve of first compound; for viability, T/C: stronger effect = lower value
Source text: Multicellular complex tumor spheroid response to DNA repair inhibitors in combination with DNA-damaging drugs
This study explores the anticancer activities of DNA-damaging drugs and inhibitors of DNA damage repair, both as single agents and in combinations. Complex tumor spheroids comprised of malignant cells, endothelial cells and mesenchymal stem cells served as an in vitro model for human solid tumors. This model system incorporates physiologically relevant features and patient-derived or established malignant cell lines with clinically relevant genetic alterations from many tumor types. Twenty-six patient-derived or established malignant cell lines were evaluated representing sarcoma, melanoma, small cell lung cancer (SCLC), non-small cell lung cancer (NSCLC), as well as bladder, ovarian and pancreatic cancers. The concentration ranges selected for each drug and investigational agent were based upon clinically achievable concentrations if the clinical Cmax of the agent was known.
Compounds. The drugs and compounds olaparib (NSC753686), talazoparib (NSC767125), berzosertib (NSC777718), elimusertib (NSC800525), nedisertib (NSC802822), VX-984 (NSC792969), AZD-1390 (NSC803789), temozolomide (NSC362856), topotecan (NSC609699), trabectedin (NSC813783), staurosporine (NSC755774), and gemcitabine (NSC613327) were obtained from the National Cancer Institute (NCI) Developmental Therapeutics Program Chemical Repository. The FDA-approved anticancer drug set is available from the Developmental Therapeutics Program at https://dtp.cancer.gov/organization/dscb/obtaining/available_plates.htm. […] The stock solutions were prepared in dimethyl sulfoxide (DMSO, Sigma-Aldrich, St. Louis, MO, cat. D2650) at 400-fold the tested concentration and stored at -70 degrees C. Prior to their use, the stock solutions were diluted in fresh medium and the final DMSO concentration in the assay was 0.25% (v/v). All drugs and investigational agents were tested over a range starting from a high concentration at or near the clinical Cmax and decreasing in half-log increments. If the clinical Cmax for an agent had not been determined, the highest concentration tested was 10 microM.
Cell Lines. The patient-derived cancer cell (PDC) lines: 156681-154-R-J1-PDC, 283228-195-R-J1-PDC, 287954-098-R-J1-PDC, 292921-168-R-J2-PDC, 349418-098-R-PDC, 425362-245-T-J1-PDC, 556581-035-R-J1-PDC, and BL0293-F563-PDC were received from the NCI Patient-Derived Models Repository (PDMR, https://pdmr.cancer.gov). The established cell lines HS-SY-2 (RRID:CVCL_8719), MPNST, and SYO-1 (RRID:CVCL_7146) were obtained from the Sloan Kettering Institute. The alveolar soft parts sarcoma cell line ASPS-1 (RRID:CVCL_S738) was established at the NCI and grown from internal seed stocks. The following established cell lines were purchased from the American Type Culture Collection (ATCC, Manassas, VA): G-401 (ATCC, cat. CRL-1441, RRID:CVCL_0270), SW982 (ATCC, cat. HTB-93, RRID:CVCL_1734), VA-ES-BJ (ATCC, cat. CRL-2138, RRID:CVCL_1785), NCI-H719 (ATCC, cat. CRL-5837, RRID:CVCL_1582), NCI-H196 (ATCC, cat. CRL-5823, RRID:CVCL_1509), NCI-H841 (ATCC, cat. CRL-5845, RRID:CVCL_1595), NCI-H1618 (ATCC, cat. CRL-5879, RRID:CVCL_1480), NCI-H1876 (ATCC, cat. CRL-5902, RRID:CVCL_1503), DMS 114 (ATCC, cat. CRL-2066; RRID:CVCL_1174), NCI-H211 (ATCC, cat. CRL-5824; RRID:CVCL_1529), and SW 1271 (ATCC, cat. CRL-2177, RRID:CVCL_1716). The small cell lung cancer cell line COR-L88 was purchased from Sigma-Aldrich (cat. 92031917-1VL, RRID:CVCL_1141). The non-small cell lung cancer cell lines NCI-H226 (RRID:CVCL_1544) and NCI-H322M (RRID:CVCL_1557) were established at the NCI and grown from internal seed stocks. Pooled donor human umbilical vein endothelial cells (HUVEC, Lonza, cat. CC-2519) and human mesenchymal stem cells (hMSC, Lonza, cat. PT-2501) were purchased from Lonza (Walkersville, MD).
Cell Culture. All cells were maintained in an incubator at 37 degrees C and 5% CO2 with 95% humidity. […]

Compound: Cc1sc2c(c1C)C(c1ccc(Cl)cc1)=NC(CC(=O)Nc1ccc(O)cc1)c1nnc(C)n1-2 (stereo not given) + CC[C@@]1(O)C(=O)OCc2c1cc1n(c2=O)Cc2cc3c(CN(C)C)c(O)ccc3nc2-1
- pIC50 (second compound 0.003 µM): 7.04
- pIC50 (second compound 0.00949 µM): > 8.02
- pIC50 (second compound 0.03 µM): > 8.02
- pIC50 (second compound 0.0949 µM): > 8.02
- pIC50 (second compound 0.3 µM): > 8.02
- viability, T/C (second compound 0.003 µM, first compound 0.00949 µM): 78.6%
- viability, T/C (second compound 0.003 µM, first compound 0.03 µM): 70.5%
- viability, T/C (second compound 0.003 µM, first compound 0.0949 µM): 49.2%
- viability, T/C (second compound 0.003 µM, first compound 0.3 µM): 23.5%
- viability, T/C (second compound 0.003 µM, first compound 0.949 µM): 9.78%
- viability, T/C (second compound 0.003 µM, first compound 3 µM): 7.01%
- viability, T/C (second compound 0.00949 µM, first compound 0.00949 µM): 37.7%
- viability, T/C (second compound 0.00949 µM, first compound 0.03 µM): 35.2%
- viability, T/C (second compound 0.00949 µM, first compound 0.0949 µM): 21.8%
- viability, T/C (second compound 0.00949 µM, first compound 0.3 µM): 15.4%
- viability, T/C (second compound 0.00949 µM, first compound 0.949 µM): 8.01%
- viability, T/C (second compound 0.00949 µM, first compound 3 µM): 4.79%
- viability, T/C (second compound 0.03 µM, first compound 0.00949 µM): 7.22%
- viability, T/C (second compound 0.03 µM, first compound 0.03 µM): 6.32%
- viability, T/C (second compound 0.03 µM, first compound 0.0949 µM): 6.41%
- viability, T/C (second compound 0.03 µM, first compound 0.3 µM): 5.13%
- viability, T/C (second compound 0.03 µM, first compound 0.949 µM): 2.41%
- viability, T/C (second compound 0.03 µM, first compound 3 µM): 2.5%
- viability, T/C (second compound 0.0949 µM, first compound 0.00949 µM): 5.51%
- viability, T/C (second compound 0.0949 µM, first compound 0.03 µM): 5.61%
- viability, T/C (second compound 0.0949 µM, first compound 0.0949 µM): 5.13%
- viability, T/C (second compound 0.0949 µM, first compound 0.3 µM): 4.3%
- viability, T/C (second compound 0.0949 µM, first compound 0.949 µM): 2.91%
- viability, T/C (second compound 0.0949 µM, first compound 3 µM): 2.35%
- viability, T/C (second compound 0.3 µM, first compound 0.00949 µM): 4.66%
- viability, T/C (second compound 0.3 µM, first compound 0.03 µM): 4.16%
- viability, T/C (second compound 0.3 µM, first compound 0.0949 µM): 4.31%
- viability, T/C (second compound 0.3 µM, first compound 0.3 µM): 3.08%
- viability, T/C (second compound 0.3 µM, first compound 0.949 µM): 1.91%
- viability, T/C (second compound 0.3 µM, first compound 3 µM): 0.64%
